# In patent publication US20030125287A1, “Antisense oligonucleotides and methods to induce tumor cell death” (Hybridon, Inc., priority 2001, published 2003):
# “Also recorded” adds a separate entry of the source. Oligonucleotides are written 5' to 3', each unit as a sugar letter and its base; * is a phosphorothioate linkage, no mark a phosphodiester; rarer units and linkages stand in square brackets, end groups in braces. Plain capitals give the bases only. d = 2'-deoxy (DNA)
# What was measured:
# caspase-3 [1] = assay: Caspase-3 activity assay in MSN cells; type: cell-based, human
# survivin [2] = assay: Western blot of survivin protein in MSN cells treated with cell cycle checkpoint blockers; type: cell-based, human; details: for survivin expression / survivin protein abundance after cell cycle blocker: result in words, cell line not given; for fold increase of survivin protein relative to DMSO or EtOH: MSN cells, vinblastine 250 nM, nocadozole 10 μM, taxotere 1 μM
# Experimental: Total protein was isolated from MSN cells either untreated or treated with vinblastine (250 nM), nocadozole (10 μM), or taxotere (1 μM). DMSO and ethanol (EtOH) were added as carriers. Each lane had 75 μg of total protein. The blots were cut at 32.9 kD, and the bottom blots were incubated with a survivin polyclonal antibody (1:500), while the top blot was incubated with a β-tubulin mAb (1:1000). In each of the treatments, the fold increase of survivin protein relative to DMSO or EtOH was vinblastine, 1.9; nocadozole, 2.6; taxotere, 1.7.
# (§1) To block cells in G2/Ml MSN cells or TC620 cells were treated with 10 μM nocodazole, 1 μM taxotere, or 250 nM vinblastine for 16 hours, at which time total protein homogenates were isolated and proteins were examined following sodium dodecyl sulfate-polyacrylamide gel electrophoresis (SDS-PAGE) and immunoblotting.
# (§2) Ten micrograms of the fusion protein was incubated with the survivin antibody (1:500) at 4° C. for 2 hours to overnight prior to immunoblotting. […] Blots were cut at 32.9 kD, and the bottom part of the blots were incubated with the survivin antibody overnight at 4° C. and visualized by enhanced chemiluminescence (Enhanced Chemiluminescence, Amersham, Arlington Heights, Ill.) as previously described (Sharma et al. Cell. Motil. Cytoskeleton 27:234-247).
# survivin [3] = assay: Western blot of survivin protein in nocodazole-treated TC620 cells; type: cell-based, human; details: nocodazole 10 μM, 24 h
# Experimental: The Western blot as represented in FIG. 2B was prepared by isolating total protein from nocadozole-treated (10 μM, 24 h) and untreated TC620 cells, MSN cells, and Jurkat cells. Each lane had 75 μg of total protein.
# as §1
# MSN cells = assay: Flow cytometry of MSN cells treated with G2/M blockers; type: cell-based, human
# Experimental: Next, the regulation of survivin expression at G2/M cell cycle checkpoints was evaluated. First, survivin expression was increased following treatment with the G2/M checkpoint blockers, vinblastine, nocodazole, and taxotere.
# caspase-3 [4] = assay: Caspase-3 activity assay in MSN cells; type: cell-based, human; remark: listed apart in the source
# Experimental: MSN cells were treated with lipofectin, 400 nM survivin antisense oligonucleotide 903, 904, or mismatched oligonucleotide 1132, for a 48 hour period. Cell pellets were washed twice in cold PBS and re-suspended in ice-cold hypotonic cell lysis buffer (25 mM HEPES, pH 7.5, 5 mM MgCl2, 5 mM EDTA, 5 mM DTT, 2 mM PMSF, 10 μg/ml pepstatin A, 10 μg/ml leupeptin). Re-suspended pellets were incubated on ice for 20 min, followed by brief sonication for two seconds. Lysates were centrifuged at 14,000 rpm for 20 minutes at 4° C. The supernatant was retained and the protein concentration analyzed by the Bio-Rad protein assay described above.
# Supernatants were assayed in triplicate, with and without the caspase-3 inhibitor, Ac-DEVD-CHO, using black opaque, 96 well, flat bottom plates (Greiner Laboratories, USA Scientific Inc., Orlando, Fla.). 50-100 μg of the supernatant was incubated in caspase-3 assay buffer (100 mM HEPES, pH 7.5, 10% sucrose, 0.1% CHAPS and 10 mM DTT) with either 2 μl of DMSO or 2 μl of 2.5 mM Ac-DEVD-CHO (Pharmingen, San Diego, Calif.) so that the final concentration of the inhibitor was 50 μM in a final volume of 100 μl. It was then incubated at 30° C. for 30 minutes. Subsequently, 2 μl of the caspase-3 substrate 2.5 mM Ac-DEVD-AMC (Pharmingen, San Diego, Calif.) (final concentration 50 μM)) was added to each well. Plates were incubated at 30° ° C. for 60 minutes in the dark.
# Fluorescence of the reaction was measured using a SPECTRAmax GEMINI spectrofluorometer using SOFTmax® PRO software (Molecular Devices, Sunnyvale, Calif.) at an excitation wavelength of 355 nm and an emission wavelength of 460 nm with a cutoff filter of 455 nm. The data is presented as the ratio of the mean relative fluorescence units/mg protein±SD.
# XIAP = details: MSN cells; 400 nM; 48 hours (FIG. 10A)
# Experimental: MSN cells were treated with lipofectin or 400 nM survivin antisense oligonucleotides 900, 901, 903, 904, 905 and 906. Total protein was isolated 48 hours after treatment, and 100 μg of protein was loaded per lane. The blot was incubated with a monoclonal antibody against XIAP (1:1000; IgG1). Visualization was by enhanced chemiluminescence (ECL). […] The experiment was performed twice.
# Total protein homogenates were prepared according to a previously described procedure (Albala et al. (1995) J. Neurochem. 64:2480-2490). Protein content was measured using the Bio-Rad detection system (Bio-Rad Laboratories, Hercules, Calif.). Equal amounts of protein were analyzed by SDS-PAGE on 10% gels (Laemmli (1970) Nature 227:680-685). The resolved polypeptides were electrophoretically transferred to nitrocellulose (Towbin et al. (1979) Proc. Natl. Acad. Sci. USA 76:4350-4354).
# Survivin polyclonal antibody was purchased from R & D Systems, Inc. (Minneapolis, Minn.). […] A generic β-tubulin monoclonal antibody (TUB 2.1) was purchased from SIGMA (St. Louis, Mo.). The XIAP mAb was purchased from StressGen Biotechnologies Corp. (Victoria, Canada). The poly-ADP ribosyl polymerase (PARP) mAb was purchased from PharMingen/Transduction Laboratories (San Diego, Calif.).
# survivin [5] = assay: Western blot of survivin protein in antisense oligonucleotide-treated MSN cells; type: cell-based, human
# Experimental: Six survivin (900-906) antisense oligonucleotides were administered at 400 nM to MSN cells in the presence of lipofectin for 48 hours. Each lane has 100 μg of protein. The blots were cut at 32.9 kD and the bottom incubated with the survivin polyclonal antibody (1:500), while the top was incubated with β-tubulin.
# Since survivin antisense oligonucleotide 903 decreased survivin protein levels by 76%, the dose dependency of 903 on survivin protein levels was further studied. As expected, mismatched oligonucleotides had no effect on the relative abundance of survivin. […] In the presence of lipofectin, survivin antisense oligonucleotide 903 was administered to MSN cells for 48 hours at 50 nM to 200 nM. Total protein (100 μg) was loaded/lane.
# Survivin antisense oligonucleotide 904 decreased survivin protein levels by 46% and 60% while survivin levels were unchanged in cells incubated with the mismatched oligonucleotide 1132. MSN cells were treated with lipofectin, survivin antisense oligonucleotide 904 or 908 at 400 nM and 600 nM, or mismatched oligonucleotide 1132 at 400 nM concentrations. Total protein (100 μg) was separated by SDS polyacrylamide gel electrophoresis and transferred to a nitrocellulose support. The blots were cut at 32.9 kD and the bottom blots incubated with the survivin polyclonal antibody (1:500), while the top blots were incubated with tubulin.
# The antisense oligonucleotides were synthesized on solid support with an automated DNA synthesizer using β-cyanoethylphosphoramidite chemistry. In order to prevent rapid degradation of the antisense oligonucleotides by cellular nucleases, oxidation was carried out with Becauge sulfurizing agent to obtain phosphorothioate backbone modified oligonucleotides. After their synthesis, the oligonucleotides were released from the solid support, deprotected, purified by reverse-phase HPLC, desalted, filtered and lyophilized. The purity and sequence integrity of oligonucleotides was ascertained by capillary gel electrophoresis and MALDI-TOF mass spectral analysis and the concentrations measured at […]. Cells were grown in 100 mm dishes and oligonucleotide treatment was performed on subconfluent cultures in the presence of Lipofectin (GIBCO) according to the manufacturer. Forty-eight hours following treatment, total protein homogenates were isolated.
# as §2
# PARP = PARP cleavage immunoblot in MSN cells; type: cell-based, human
# Experimental: To determine whether MSN cell death by survivin antisense oligonucleotides was mediated by caspase-3 activation, studies were conducted to examine whether PARP was cleaved following survivin antisense treatment. […] Since no PARP cleavage was detected, further tests were conducted to determine whether survivin antisense-treated cells have any active caspase-3.
# [6] = 400 nM, lipofectin, 48 hours (FIG. 3A)
compound,measurement,setting,value
CN[C@@H]1C[C@H]2O[C@@](C)([C@@H]1OC)n1c3ccccc3c3c4c(c5c6ccccc6n2c5c31)C(=O)NC4 [Staurosporine],"caspase-3 activity, Relative units/mg protein +/− SD","caspase-3 [1]; 1 μM, 6 hours, triplicate","264,281 ± 8130 Relative units/mg protein"
same,fold increase in caspase-3 activity,caspase-3 [1]; staurosporine treatment,over 7 fold
CN1CC[C@H](c2c(O)cc(O)c3c(=O)cc(-c4ccccc4Cl)oc23)[C@H](O)C1 [flavopiridol],survivin expression / survivin protein abundance after cell cycle blocker,survivin [2],did not alter survivin protein abundance
COC(=O)Nc1nc2ccc(C(=O)c3cccs3)cc2[nH]1 [nocodazole],fold increase in survivin protein,survivin [3],1.6 fold
same,fold increase of survivin protein relative to DMSO or EtOH,survivin [2],2.6 fold
same,survivin expression / survivin protein abundance after cell cycle blocker,survivin [2],increased
CC(=O)O[C@@]12CO[C@@H]1C[C@H](O)[C@@]1(C)C(=O)[C@H](O)C3=C(C)[C@@H](OC(=O)[C@H](O)[C@@H](NC(=O)OC(C)(C)C)c4ccccc4)C[C@@](O)([C@@H](OC(=O)c4ccccc4)[C@H]21)C3(C)C [taxotere],cell cycle phase by flow cytometry,MSN cells,blocked at the G2/M cell cycle phase
same,fold increase of survivin protein relative to DMSO or EtOH,survivin [2],1.7 fold
same,survivin expression / survivin protein abundance after cell cycle blocker,survivin [2],increased
CC[C@]1(O)C[C@@H]2CN(CCc3c([nH]c4ccccc34)[C@@](C(=O)OC)(c3cc4c(cc3OC)N(C)[C@H]3[C@@](O)(C(=O)OC)[C@H](OC(C)=O)[C@]5(CC)C=CCN6CC[C@]43[C@@H]65)C2)C1 [vinblastine],cell cycle phase by flow cytometry,MSN cells,blocked at the G2/M cell cycle phase
same,fold increase of survivin protein relative to DMSO or EtOH,survivin [2],1.9 fold
same,survivin expression / survivin protein abundance after cell cycle blocker,survivin [2],increased
Ac-DEVD-CHO [reference compound],effect of caspase-3 inhibitor on caspase-3 activation in the assay,"caspase-3 [4]; added to MSN cell supernatants, final concentration 50 μM",eliminated caspase-3 activation
"d(CAGTGGATGAAGGCAGCCTC) (antisense dC*dA*dG*dT*dG*dG*dA*dT*dG*dA*dA*dG*dG*dC*dA*dG*dC*dC*dT*dC) [Oligo 901, 20-mer phosphorothioate survivin antisense oligonucleotide, complementary to survivin mRNA 3180-3199]",fold change of XIAP protein over β-tubulin relative to lipofectin,XIAP,3.9 fold
same,percentage of survivin protein over β-tubulin relative to lipofectin,survivin [5]; [6],38.3%
"d(CCCTAGCTCACACTCTCATT) (antisense dC*dC*dC*dT*dA*dG*dC*dT*dC*dA*dC*dA*dC*dT*dC*dT*dC*dA*dT*dT) [Oligo 903, 20-mer phosphorothioate survivin antisense oligonucleotide, complementary to survivin mRNA 4385-4404]",fold change of XIAP protein over β-tubulin relative to lipofectin,XIAP,5.2 fold
same,"PARP cleavage, words",PARP,"did not activate caspase-3 or cleave the caspase-3 substrate, PARP"
same,caspase-3 activity,"caspase-3 [4]; MSN cells, 400 nM, 48 hours",no significant increase in caspase-3 activity; also recorded: did not activate caspase-3
same,"caspase-3 activity, Relative units/mg protein +/− SD","caspase-3 [4]; MSN cells, 400 nM, 48 hours, triplicate","27,850 ± 2311 Relative units/mg protein"
same,percentage of survivin protein over β-tubulin relative to lipofectin,"survivin [5]; 50 nM, 48 hours (FIG. 3B)",83.9%
same,percentage of survivin protein over β-tubulin relative to lipofectin,"survivin [5]; 75 nM, 48 hours (FIG. 3B)",62.6%
same,percentage of survivin protein over β-tubulin relative to lipofectin,"survivin [5]; 100 nM, 48 hours (FIG. 3B)",95.6%
same,percentage of survivin protein over β-tubulin relative to lipofectin,"survivin [5]; 200 nM, 48 hours (FIG. 3B)",48.5%
same,reduction in survivin,"survivin [5]; 200 nM, 48 hours (FIG. 3B)",51%
same,"decrease in survivin protein levels relative to lipofectin-treated control, normalized to β-tubulin","survivin [5]; 400 nM, 48 hours (FIG. 3A)",76%
same,percentage of survivin protein over β-tubulin relative to lipofectin,survivin [5]; [6],24.3%
same,effect on survivin protein levels,"survivin [5]; lipofectin, 48 hours",concentration-dependent decrease in survivin protein levels
d(GAGCCTTCCTCTTCATGTCC) (antisense dG*dA*dG*dC*dC*dT*dT*dC*dC*dT*dC*dT*dT*dC*dA*dT*dG*dT*dC*dC) [Oligo 905],fold change of XIAP protein over β-tubulin relative to lipofectin,XIAP,7.6 fold
"d(GCCAGTTCTTGAATGTAGAG) (antisense dG*dC*dC*dA*dG*dT*dT*dC*dT*dT*dG*dA*dA*dT*dG*dT*dA*dG*dA*dG) [Oligo 900, 20-mer phosphorothioate survivin antisense oligonucleotide, complementary to survivin mRNA 2867-2886]",fold change of XIAP protein over β-tubulin relative to lipofectin,XIAP,2.3 fold
same,percentage of survivin protein over β-tubulin relative to lipofectin,survivin [5]; [6],77.7%
